Source: patent US20100267561A1, “HERBICIDAL PYRIDAZINONE DERIVATIVES” (priority 2007, published 2010)

Tests used:
Assay in all cases: Test B postemergence plant response
Format in all cases: in vivo
[1] = test system: winter barley (Hordeum vulgare); conditions: for Plant response rating, Barley: Postemergence; for Barley plant response rating: 8 g ai/ha, postemergence, 0-100 scale
How it was run: (§1)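 Visual injury ratings on a 0–100 scale, where 100 means complete control, were made 13 to 15 days after postemergence treatment of greenhouse-grown plants at the 1- to 4-leaf stage.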

[2] = test system: windgrass (Apera spica-venti); conditions: for Plant response rating, Windgrass: Postemergence; for Windgrass plant response rating: postemergence, 0-100 scale
How it was run: as §1

[3] = test system: canarygrass (Phalaris minor); conditions: for Plant response rating, Canarygrass: Postemergence; for Canarygrass plant response rating: 8 g ai/ha, postemergence, 0-100 scale
How it was run: as §1

[4] = 31 g ai/ha, scale 0 to 100, 0 no effect, 100 complete control
[5] = 16 g ai/ha, scale 0 to 100, 0 no effect, 100 complete control
[6] = 62 g ai/ha, scale 0 to 100, 0 no effect, 100 complete control

Compound	Plant response rating, Barley [1, 4]	Plant response rating, Barley ([1]; 62 g ai/ha, scale 0 to 100)	Plant response rating, Barley ([1]; 125 g ai/ha, scale 0 to 100)	Plant response rating, Barley ([1]; 250 g ai/ha, scale 0 to 100)	Plant response rating, Windgrass [2, 4]	Plant response rating, Windgrass ([2]; 62 g ai/ha, scale 0 to 100)	Plant response rating, Windgrass ([2]; 125 g ai/ha, scale 0 to 100)	Plant response rating, Windgrass ([2]; 250 g ai/ha, scale 0 to 100)	Plant response rating, Canarygrass [3, 4]	Plant response rating, Canarygrass ([3]; 62 g ai/ha, scale 0 to 100)	Plant response rating, Canarygrass ([3]; 125 g ai/ha, scale 0 to 100)	Plant response rating, Canarygrass ([3]; 250 g ai/ha, scale 0 to 100)	Barley plant response rating [1]	Plant response rating, Barley [1, 5]	Plant response rating, Barley [1, 6]	Windgrass plant response rating ([2]; 8 g ai/ha)	Plant response rating, Windgrass [2, 6]	Canarygrass plant response rating [3]	Plant response rating, Canarygrass ([3]; 16 g ai/ha, scale 0 to 100)	Plant response rating, Canarygrass [3, 6]	other results
4-[3-(4-chlorophenyl)-5-methyl-1H-pyrazol-3-yl]-5-hydroxy-2-methyl-3(2H)-pyridazinone [Compound 3]	0	0	0	0	80	100	100	100	85	85	85	90									
Cc1cc(-c2ccc(C(F)(F)F)cc2)nn1-c1c(O)cnn(C)c1=O [Compound 1, 5-hydroxy-2-methyl-4-[5-methyl-3-[4-(trifluoromethyl)phenyl]-1H-pyrazol-1-yl]-3(2H)-pyridazinone]	0	0	0	30	95	100	100	100	0	0	0	40									
Cc1cc(-c2ccc(Br)cc2)nn1-c1c(O)cnn(C)c1=O [Compound 4]	0	10	90	95	90	100	100	100	80	90	100	100									
Cc1cc(-c2ccc(Br)cc2)nn1-c1c(OC(=O)OC(C)C)cnn(C)c1=O [Compound 6]	30	30	80	80	90	95	100	100	95	95	100	100									
Cc1cc(-c2ccc(Cl)cc2)nn1-c1c(OS(C)(=O)=O)cnn(C)c1=O [Compound 36]	15								10				0	0	15	0	65	0	0	10	Plant response rating, Windgrass ([2]; 16 g ai/ha, scale 0 to 100): 0
CCc1cc(-c2ccc(Cl)cc2)nn1-c1c(OS(C)(=O)=O)cnn(C)c1=O [Compound 39]	40								40				0	5	70	0	100	0	0	50	Plant response rating, Windgrass ([2]; 16 g ai/ha, scale 0 to 100): 40
CCc1cc(-c2ccc(Cl)cc2)nn1-c1c(OC(=O)C(C)(C)C)cnn(C)c1=O [Compound 40]	70								80				35	40	70	70	100	20	30	80	Plant response rating, Windgrass ([2]; 16 g ai/ha, scale 0 to 100): 80
CCc1cc(-c2ccc(Br)cc2)nn1-c1c(O)cnn(C)c1=O [Compound 61]	90												70	90	90	90	100	80	85	85	Windgrass plant response rating ([2]; 16 g ai/ha): 100; Plant response rating, Windgrass ([2]; 31 g ai/ha, scale 0 to 100): 100; Plant response rating, Canarygrass ([3]; 31 g ai/ha, scale 0 to 100): 85
CCc1cc(-c2ccc(C(F)(F)F)cc2)nn1-c1c(O)cnn(CC)c1=O [Compound 67]	95												35	85		95	100	50	80		Windgrass plant response rating ([2]; 16 g ai/ha): 100; Plant response rating, Windgrass ([2]; 31 g ai/ha, scale 0 to 100): 100; Plant response rating, Canarygrass ([3]; 31 g ai/ha, scale 0 to 100): 95
COCc1cc(-c2ccc(Br)cc2)nn1-c1c(O)cnn(C)c1=O [Compound 68]	0												0	0	0	0	35	0	0	10	Windgrass plant response rating ([2]; 16 g ai/ha): 0; Plant response rating, Windgrass ([2]; 31 g ai/ha, scale 0 to 100): 0; Plant response rating, Canarygrass ([3]; 31 g ai/ha, scale 0 to 100): 0
